{"source": "patent US10031127B2", "about": "“Method for separating aggregates of malignant cells and aggregates from stromal cells of a malignant tumour tissue sample” (Flacod GmbH, priority 2012, dated 2018)", "key": {"[1]": {"system": "clusters of malignant cells and/or stromal cell clusters of malignant lung tumors (fractionated and unfractionated digestion products)", "assay": "chemosensitivity to cisplatin, colony formation on ECM-coated culture plates", "assay_type": "cell-based", "details": "6000 nM cisplatin, 3 days incubation, most of the fractionated and unfractionated digestion products", "procedure": "(§1) Samples were freshly resected from malignant lung tumors of various histologies, then purified and minced. Tumor tissue samples of 5 to 10 mg per 1 mL were suspended in RPMI 1640 culture medium with an FBS content of 10%. These suspensions were subjected to a collagenase digestion, preferably using Clostridium histolyticum collagenase (230 CDU/mL) for a period of 4 to 5 hours at 36° C. to 37° C., preferably at 36.5° C. Next the digested product was centrifuged at 50×g, the supernatant was discarded and the pellet was dissolved and resuspended in 1 mL fresh culture medium. Each test preparation was transferred to a Petri dish and adjusted with culture medium to a concentration corresponding to 5 to 10 mg tumor sample wet weight per 1 mL culture medium.\n(§2) The cell suspension of each test preparation (test run) was picked up with a 1 mL pipette tip (another aspiration device can also be used) and then discharged again, 4 to 5 times in succession, and thereby subjected to a treatment with hydrodynamic shearing forces. Next, with the help of an inverse microscope equipped with a phase contrast lens system, cell clusters of phenotypically the same cells were detected and each was transferred to a separate culture vessel using injection cannulas no. 23 (diameter 0.6 mm, length 60-80 mm) attached to 2 mL injection syringes. […]"}, "[2]": {"system": "isolated stromal cell clusters of malignant lung tumors", "assay": "chemosensitivity to cisplatin, isolated stromal cell clusters", "assay_type": "cell-based", "details": "isolated microscopically identified stromal cell clusters, in the absence of malignant cells; 3 days, 0-6000 nM cisplatin", "procedure": "as §1, §2"}}, "data": [{"smiles": "N.N.[Cl][Pt][Cl]", "note": "[cisplatin]", "values": [{"measurement": "colony formation ex vivo in the presence of cisplatin", "setting": "[1]", "result": "capable of forming colonies ex vivo even in the presence of 6000 nM cisplatin"}, {"measurement": "cisplatin resistance of stromal cell clusters", "setting": "[2]", "result": "often have cisplatin resistance even in the absence of malignant cells"}]}]}
